Reference: patent US20230165242A1, “RODENTICIDAL BAIT AND METHOD OF CONTROLLING TARGET HARMFUL RODENTS” (priority 2020, published 2023)

Columns and labels:
[1] = tested on: brown rats (Rattus norvegicus) that are homozygotic carriers of the Y139C mutation; assay: Relative toxicity of cholecalciferol, single gavage dose, Y139C rats; assay type: in vivo; settings: single gavage dose 30 mg/kg; 20 days
From the text: (§1) Warfarin-sensitive Sprague-Dawley rats (20 male rats and 20 female rats), male and female rats that are homozygotic carriers of the L120Q mutation, male and female Sprague-Dawley rats that are homozygotic carriers of the Y139F mutation and male and female brown rats (Rattus norvegicus) that are homozygotic carriers of the Y1 39C mutation are acclimatized for 5 days in the presence of a conventional solid feed and water in unlimited amounts. The rats are fed by gavage with a single dose of a gavage solution containing cholecalciferol (Sigma-Aldrich, France) in a solvent consisting of 95% (v/v) of oil and 5% (v/v) of DMSO. The rats are fed with a conventional solid feed and water in unlimited amounts. The amount of cholecalciferol administered is 30 mg of cholecalciferol per kilogram of body weight of the rat fed by gavage. The percentage of rats surviving gavage for 20 days, counting from the first day of gavage, is noted daily. The results given in Table 4 hereunder describe the mortality observed (“SD”, Sprague-Dawley). The amount of cholecalciferol ingested by the rodents during gavage corresponds to consumption by these rodents of a bait assayed at 300 ppm of cholecalciferol.

[2] = tested on: warfarin-sensitive male OFA-Sprague-Dawley rats; assay: Synergy of bromadiolone and cholecalciferol, gavage, survival; assay type: in vivo, rat; settings: gavage 5 consecutive days; bromadiolone 0.1 mg/kg alone, cholecalciferol 7.5 mg/kg alone, or both combined; after 20 days of observation
From the text: A group of 10 warfarin-sensitive male OFA-Sprague-Dawley rats (Charles River, L′Arbresles, France), aged 10 weeks and with a body weight between 160 and 180 g, are fed by gavage for 5 consecutive days with a gavage solution containing bromadiolone (LIPHATECH, France) and cholecalciferol (Sigma-Aldrich, France) in a solvent consisting of 95% (v/v) of oil and 5% (v/v) of DMSO. During this period of gavage, the rats are fed with a conventional solid feed and water in unlimited amounts. The rats are fed by gavage with a volume of this gavage solution so as to administer an amount of bromadiolone corresponding to 0.1 mg of bromadiolone per kilogram of body weight of the rat fed by gavage and an amount of cholecalciferol corresponding to 7.5 mg of cholecalciferol per kilogram of body weight of the rat fed by gavage. The rats in two control groups, each consisting of 10 male OFA-Sprague-Dawley rats, are fed by gavage in the same conditions with gavage solutions containing, respectively, bromadiolone alone so as to administer an amount of bromadiolone corresponding to 0.1 mg of bromadiolone per kilogram of body weight of the rat fed by gavage and cholecalciferol alone so as to administer an amount of cholecalciferol corresponding to 7.5 mg of cholecalciferol per kilogram of body weight of the rat fed by gavage. […]

[3] = tested on: warfarin-sensitive male OFA-Sprague-Dawley rats; assay: Dose/rodenticidal response effect of cholecalciferol; assay type: in vivo, rat; settings: gavage, 21 days
Experimental: A gavage solution containing cholecalciferol (Sigma-Aldrich, France) in a solvent consisting of 95% (v/v) of oil and 5% (v/v) of DMSO is administered once a day for 3 consecutive days to warfarin-sensitive male OFA-Sprague-Dawley rats (Charles River, L′Arbresles, France), aged 10 weeks and with a body weight between 160 and 180 g. During this period of gavage, the rats are fed with a conventional solid feed and water in unlimited amounts. The doses of cholecalciferol administered to the OFA-Sprague-Dawley rats, given in Table 7 hereunder, are expressed in milligrams of cholecalciferol administered per kilogram of body weight of the gavage-fed rodent.
The percentage of rats surviving gavage is noted daily for 21 days counting from the first day of gavage.

[4] = tested on: rats that are homozygotic carriers of the L120Q mutation; assay: Relative toxicity of cholecalciferol, single gavage dose, L120Q rats; assay type: in vivo, rat; settings: single gavage dose 30 mg/kg; 20 days
From the text: as §1

[5] = tested on: Warfarin-sensitive Sprague-Dawley rats; assay: Relative toxicity of cholecalciferol, single gavage dose, “SD” rats; assay type: in vivo, rat; settings: single gavage dose 30 mg/kg; 20 days
From the text: as §1

[6] = tested on: warfarin-sensitive male OFA-Sprague-Dawley rats; assay: Synergy of difethialone and cholecalciferol on warfarin-sensitive rats, gavage, survival; assay type: in vivo, rat; settings: gavage once a day for 3 days; cholecalciferol alone 7.5 mg/kg; after 2 days of observation
From the text: A group of warfarin-sensitive male OFA-Sprague-Dawley rats (Charles River, L′Arbresles, France), aged 10 weeks and with a body weight between 160 and 180 g, are fed by gavage once a day for 3 consecutive days with a gavage solution containing difethialone (LIPHATECH, France) and cholecalciferol (Sigma-Aldrich, France) in a solvent consisting of 95% (v/v) of oil and 5% (v/v) of DMSO. During this period of gavage, the rats are fed with a conventional solid feed and water in unlimited amounts. The amounts of difethialone and cholecalciferol administered are 125 μg per kilogram of body weight of the rat fed by gavage and 7.5 mg per kilogram of body weight of the rat fed by gavage, respectively. The rats in two control groups, each consisting of OFA-Sprague-Dawley rats, are fed by gavage in the same conditions with gavage solutions containing difethialone alone (125 μg/kg) or cholecalciferol alone (7.5 mg/kg), respectively. The percentage of rats surviving gavage is recorded daily, for 20 days counting from the first day of gavage. The results presented [FIG. 3] show the variation of the percentage of rodents surviving (in %) as a function of time (t, in days) following the first day of gavage. The rats fed by gavage with the difethialone solution (♦) have 100% survival after 20 days of observation. […]

C=C1CC[C@H](O)C/C1=C/C=C1\CCC[C@]2(C)[C@@H]([C@H](C)CCCC(C)C)CC[C@@H]12 [cholecalciferol]
Female mortality, % [1]: 0%
Male mortality, % [1]: 30%
percentage of rats surviving [2]: 70%
Mortality, % ([3]; dose 5 mg/kg once a day for 3 days): 20%
Mortality, % ([3]; dose 7.5 mg/kg once a day for 3 days): 30%
Female mortality, % [4]: 5%
Male mortality, % [4]: 15%
Female mortality, % [5]: 30%
Male mortality, % [5]: 10%
percentage of rats surviving [6]: 60%
